For 27 molecules, Ki and IC50 results are on record in ChEMBL document CHEMBL3992555, “Design, synthesis and preliminary biological evaluation of indole-3-carboxylic acid-based skeleton of Bcl-2/Mcl-1 dual inhibitors” (Bioorg Med Chem, 2017).

SMILES strings stand for the structures.

Assay [1] deals with Apoptosis regulator Bcl-2 (Homo sapiens, UniProt P10415). Nature of the assay: Inhibition of N-terminal FAM-labeled Bid-BH3 peptide binding to Bcl2 (unknown origin) preincubated for 30 mins followed by N-terminal FAM-labeled Bid-BH3 peptide addition measured after 20 mins by fluorescence polarization assay.
For the next assay, the target named is Bcl-2-like protein 1 (Homo sapiens, UniProt Q07817). Nature of the assay: Inhibition of N-terminal FAM-labeled Bid-BH3 peptide binding to Bcl-XL (unknown origin) preincubated for 30 mins followed by N-terminal FAM-labeled Bid-BH3 peptide addition measured after 20 mins by fluorescence polarization assay.
For assay [2], the target named is Induced myeloid leukemia cell differentiation protein Mcl-1 (Homo sapiens, UniProt Q07820). Nature of the assay: Inhibition of N-terminal FAM-labeled Bid-BH3 peptide binding to MCL1 (unknown origin) preincubated for 30 mins followed by N-terminal FAM-labeled Bid-BH3 peptide addition measured after 20 mins by fluorescence polarization assay. (In general: In fluorescence polarisation assays a small probe gives low polarisation when free and higher when bound to something large.)

A further assay deals with MDA-MB-231. Nature of the assay: Antiproliferative activity against human MDA-MB-231 cells after 48 hrs by MTT assay. In kind it is functional, cell-based. The conditions noted are these: MDA-MB-231, 48 h. On the technique in general: Tetrazolium dyes change colour on reduction, which living cells bring about.
For another assay, the system named is PC-3. Nature of the assay: Antiproliferative activity against human PC3 cells after 48 hrs by MTT assay. In kind it is functional, cell-based. As to conditions: PC-3, 48 h.
The subject of another assay is K562. Put plainly: Antiproliferative activity against human K562 cells after 48 hrs by MTT assay. In kind it is functional, cell-based. As to conditions: K562, 48 h.

Chain of Apoptosis regulator Bcl-2 (P10415 whole entry): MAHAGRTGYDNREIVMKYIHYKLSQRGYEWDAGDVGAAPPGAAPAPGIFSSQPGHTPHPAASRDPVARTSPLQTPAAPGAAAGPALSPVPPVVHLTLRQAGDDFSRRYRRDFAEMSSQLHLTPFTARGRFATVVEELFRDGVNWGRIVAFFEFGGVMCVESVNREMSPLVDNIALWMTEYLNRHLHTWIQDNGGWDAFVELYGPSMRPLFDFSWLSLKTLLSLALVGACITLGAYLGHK
Chain of Bcl-2-like protein 1 (Q07817 whole entry): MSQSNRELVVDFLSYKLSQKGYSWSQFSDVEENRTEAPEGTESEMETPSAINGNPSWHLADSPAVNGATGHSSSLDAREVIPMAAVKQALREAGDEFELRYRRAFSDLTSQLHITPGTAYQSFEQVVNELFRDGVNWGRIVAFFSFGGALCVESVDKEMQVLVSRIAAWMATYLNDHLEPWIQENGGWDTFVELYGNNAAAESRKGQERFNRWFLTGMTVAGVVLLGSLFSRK
Chain of Induced myeloid leukemia cell differentiation protein Mcl-1 (Q07820 whole entry): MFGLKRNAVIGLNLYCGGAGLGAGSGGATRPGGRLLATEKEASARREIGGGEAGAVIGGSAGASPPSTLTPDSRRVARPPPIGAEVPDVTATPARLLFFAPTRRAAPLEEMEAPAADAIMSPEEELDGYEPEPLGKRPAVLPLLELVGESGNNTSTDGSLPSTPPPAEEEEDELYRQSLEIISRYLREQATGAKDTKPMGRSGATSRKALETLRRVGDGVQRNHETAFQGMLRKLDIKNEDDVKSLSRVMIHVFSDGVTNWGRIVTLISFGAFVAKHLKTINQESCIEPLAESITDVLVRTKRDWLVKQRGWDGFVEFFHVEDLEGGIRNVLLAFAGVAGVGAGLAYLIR

Molecule `CCCOc1ccc(C[C@H](NC(=O)c2cn(Cc3ccc(-c4ccc(OC)cc4)cc3)c3ccccc23)C(=O)NS(=O)(=O)c2ccc(Cl)c([N+](=O)[O-])c2)cc1` came in with an inhibition constant Ki in assay [1] of more than 10 µM.
Same read-out and setting: to `Cc1ccc(-c2ccc(Cn3cc(C(=O)N[C@@H](Cc4ccc(OCc5ccccc5)cc4)C(=O)NS(=O)(=O)c4ccc(Cl)c([N+](=O)[O-])c4)c4ccccc43)cc2)cc1` belongs more than 10 µM.
Regarding `O=C(N[C@@H](Cc1ccccc1)C(=O)NS(=O)(=O)c1ccc(Cl)c([N+](=O)[O-])c1)c1cn(Cc2ccc(-c3ccc(Cl)cc3)cc2)c2ccccc12`, the Ki in assay [1] amounted to 0.26 µM; at Bcl-2-like protein 1 it was 0.71 µM; in assay [2], 0.072 µM. The half-inhibitory concentration (IC50) was found to be 29.5 µM in the assay with MDA-MB-231, 28.8 µM in the assay with PC-3 and 19.7 µM in the assay on K562.
Turning to `O=C(N[C@@H](Cc1ccc(Br)cc1)C(=O)NS(=O)(=O)c1ccc(Cl)c([N+](=O)[O-])c1)c1cn(Cc2ccc(-c3ccc(Cl)cc3)cc2)c2ccccc12`, the inhibitory constant (Ki) in assay [1] is more than 10 µM.
Still for that read-out and setting: to `COc1ccc(-c2ccc(Cn3cc(C(=O)N[C@@H](Cc4ccccc4)C(=O)O)c4ccccc43)cc2)cc1` belongs more than 10 µM; to `O=C(N[C@@H](Cc1ccc(Br)cc1)C(=O)NS(=O)(=O)c1ccccc1)c1cn(Cc2ccc(-c3ccc(Cl)cc3)cc2)c2ccccc12`, 0.91 µM.
Still for that read-out and setting: to `O=C(N[C@@H](Cc1ccccc1)C(=O)NS(=O)(=O)c1ccc(Cl)c([N+](=O)[O-])c1)c1cn(Cc2ccc(-c3ccccc3)cc2)c2ccccc12` belongs 2.6 µM; to `COc1ccc(-c2ccc(Cn3cc(C(=O)N[C@@H](Cc4ccccc4)C(=O)NS(=O)(=O)c4ccccc4)c4ccccc43)cc2)cc1`, 1.3 µM.
In the case of `Cc1ccc(S(=O)(=O)NC(=O)[C@H](Cc2ccccc2)N2C(=O)/C(=C/c3ccc(-c4ccccc4)cc3)SC2=S)cc1`, the inhibition constant Ki in assay [1] amounted to 0.76 µM; on Bcl-2-like protein 1, 0.81 µM; in assay [2], 0.44 µM.
For the molecule `CCCOc1ccc(C[C@H](NC(=O)c2cn(Cc3ccc(-c4ccccc4)cc3)c3ccccc23)C(=O)NS(=O)(=O)c2ccc(Cl)c([N+](=O)[O-])c2)cc1`, the Ki in assay [1] was found to be 5.6 µM.
Still for that read-out and setting: to `O=C(N[C@@H](Cc1ccc(OCc2ccc([N+](=O)[O-])cc2)cc1)C(=O)NS(=O)(=O)c1ccc(Cl)c([N+](=O)[O-])c1)c1cn(Cc2ccc(-c3ccc(Cl)cc3)cc2)c2ccccc12` belongs more than 10 µM; to `COc1ccc(-c2ccc(Cn3cc(C(=O)N[C@@H](Cc4ccc(Br)cc4)C(=O)NS(=O)(=O)c4ccc(Cl)c([N+](=O)[O-])c4)c4ccccc43)cc2)cc1`, more than 10 µM.
Same read-out and setting: to `COc1ccc(-c2ccc(Cn3cc(C(=O)N[C@@H](Cc4ccc(OCc5ccc([N+](=O)[O-])cc5)cc4)C(=O)NS(=O)(=O)c4ccc(Cl)c([N+](=O)[O-])c4)c4ccccc43)cc2)cc1` belongs more than 10 µM; to `O=C(N[C@@H](Cc1ccc(OCc2ccc([N+](=O)[O-])cc2)cc1)C(=O)NS(=O)(=O)c1ccc(Cl)c([N+](=O)[O-])c1)c1cn(Cc2ccc(-c3ccccc3)cc2)c2ccccc12`, more than 10 µM.
`O=C(N[C@@H](Cc1ccc(OCc2ccccc2)cc1)C(=O)NS(=O)(=O)c1ccc(Cl)c([N+](=O)[O-])c1)c1cn(Cc2ccc(-c3ccccc3)cc2)c2ccccc12`: the inhibitory constant (Ki) in assay [1] is more than 10 µM.
Still for that read-out and setting: the result for `O=C(N[C@@H](Cc1ccccc1)C(=O)NS(=O)(=O)c1ccccc1)c1cn(Cc2ccc(-c3ccccc3)cc2)c2ccccc12` reads more than 10 µM.
`O=C(N[C@@H](Cc1ccccc1)C(=O)NS(=O)(=O)c1ccccc1)c1cn(Cc2ccc(-c3ccc(Cl)cc3)cc2)c2ccccc12`: the Ki in assay [1] amounted to 0.74 µM; on Bcl-2-like protein 1, 2.1 µM; in assay [2] it was 0.49 µM. Further, the 50% inhibitory concentration (IC50) in the assay with MDA-MB-231 was 29.6 µM; in the assay on PC-3, 23.6 µM; in the assay on K562 it was 32.4 µM.
Regarding `COc1ccc(-c2ccc(Cn3cc(C(=O)N[C@@H](Cc4ccccc4)C(=O)NS(=O)(=O)c4ccc(Cl)c([N+](=O)[O-])c4)c4ccccc43)cc2)cc1`, the inhibition constant (Ki) in assay [1] is more than 10 µM.
Still for that read-out and setting: the result for `COc1ccc(-c2ccc(Cn3cc(C(=O)N[C@@H](Cc4ccc(OCc5ccccc5)cc4)C(=O)NS(=O)(=O)c4ccc(Cl)c([N+](=O)[O-])c4)c4ccccc43)cc2)cc1` reads more than 10 µM.
Still for that read-out and setting: to `O=C(N[C@@H](Cc1ccc(Br)cc1)C(=O)NS(=O)(=O)c1ccc(Cl)c([N+](=O)[O-])c1)c1cn(Cc2ccc(-c3ccccc3)cc2)c2ccccc12` belongs more than 10 µM; to `CCCOc1ccc(C[C@H](NC(=O)c2cn(Cc3ccc(-c4ccc(Cl)cc4)cc3)c3ccccc23)C(=O)NS(=O)(=O)c2ccc([N+](=O)[O-])cc2)cc1`, more than 10 µM; to `O=C(N[C@@H](Cc1ccc(OCc2ccccc2)cc1)C(=O)NS(=O)(=O)c1ccc(Cl)c([N+](=O)[O-])c1)c1cn(Cc2ccc(-c3ccc(Cl)cc3)cc2)c2ccccc12`, more than 10 µM.
The same measure, in the same setting: the result for `CCCOc1ccc(C[C@H](NC(=O)c2cn(Cc3ccc(-c4ccc(Cl)cc4)cc3)c3ccccc23)C(=O)NS(=O)(=O)c2ccc(Cl)c([N+](=O)[O-])c2)cc1` reads more than 10 µM.
For the molecule `COc1ccc(-c2ccc(Cn3cc(C(=O)N[C@@H](Cc4c[nH]c5ccccc45)C(=O)NS(=O)(=O)c4ccc(C)cc4)c4ccccc43)cc2)cc1`, the figures for the inhibitory constant (Ki) in assay [1] and in assay [2] were 0.75 µM and 0.53 µM, respectively. Moreover, the figures for the IC50 with MDA-MB-231, in the assay on PC-3 and in the assay on K562 were 11.5 µM, 18.3 µM and 10.1 µM, respectively.
As for `CC(C)C[C@H](NC(=O)c1cn(Cc2ccc(-c3ccc(Cl)cc3)cc2)c2ccccc12)C(=O)NS(=O)(=O)c1ccccc1`, the Ki in assay [1] turned out to be 0.92 µM; on Bcl-2-like protein 1, 6.2 µM; in assay [2], 0.6 µM.
Regarding `COc1ccc(-c2ccc(Cn3cc(C(=O)N[C@@H](Cc4c[nH]c5ccccc45)C(=O)NS(=O)(=O)c4ccc(Cl)c([N+](=O)[O-])c4)c4ccccc43)cc2)cc1`, the Ki in assay [1] was more than 10 µM.
For `Cc1cc2c(C(C)C)c(O)c(O)c(C=O)c2c(O)c1-c1c(C)cc2c(C(C)C)c(O)c(O)c(C=O)c2c1O` [GOSSYPOL], the IC50 with MDA-MB-231 turned out to be 8.54 µM; with PC-3, 8.58 µM; in the assay with K562, 8.28 µM.

As usually defined, the Ki is a measure of affinity in units of concentration, obtained from inhibition or displacement. A lower Ki goes with higher affinity. As a reminder, the IC50 is the concentration at which inhibition is half-maximal. A higher IC50 goes with weaker potency.
